Legend:
c-Kit(V654A) = target: T1, c-Kit(V654A) (Homo sapiens, UniProt P10721, V654A); assay: c-Kit(V654A) assay; type: biochemical; details: recombinant human c-Kit aa 544-end, 200 μM ATP, 1.4E-06 means 1.4×10^−6, read-out: Inhibition (IC50) of c-KIT (V654A)
T1 construct: amino acids 544-end containing the V654A mutation; GST (N)
In short: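 Radiometric filter-binding read-out: substrate 33P incorporation counted by scintillation after P30 filtermat washes in 75 mM phosphoric acid and methanol. Enzyme: N-GST recombinant human c-Kit aa 544-end carrying V654A.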

PDGFRalpha(V561D) = target: T2, PDGFRalpha(V561D) (Homo sapiens, UniProt P16234, V561D); assay: PDGFRalpha(V561D) assay; type: biochemical; details: recombinant human PDGFRalpha aa 550-end, 200 μM ATP, 1.4E-06 means 1.4×10^−6, read-out: Inhibition (IC50) of PDGFRα (V561D)
T2 construct: recombinant human PDGFRalpha, amino acids 550end containing the V561 D mutation; 6His (N)
In short: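 Radiometric filter-binding assay: substrate phosphorylation by recombinant N-His-tagged human PDGFRα 550-end V561D was quenched with 3% phosphoric acid after 40 min at room temperature, then counted.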

T2 sequence (P16234 550-1089 V561D): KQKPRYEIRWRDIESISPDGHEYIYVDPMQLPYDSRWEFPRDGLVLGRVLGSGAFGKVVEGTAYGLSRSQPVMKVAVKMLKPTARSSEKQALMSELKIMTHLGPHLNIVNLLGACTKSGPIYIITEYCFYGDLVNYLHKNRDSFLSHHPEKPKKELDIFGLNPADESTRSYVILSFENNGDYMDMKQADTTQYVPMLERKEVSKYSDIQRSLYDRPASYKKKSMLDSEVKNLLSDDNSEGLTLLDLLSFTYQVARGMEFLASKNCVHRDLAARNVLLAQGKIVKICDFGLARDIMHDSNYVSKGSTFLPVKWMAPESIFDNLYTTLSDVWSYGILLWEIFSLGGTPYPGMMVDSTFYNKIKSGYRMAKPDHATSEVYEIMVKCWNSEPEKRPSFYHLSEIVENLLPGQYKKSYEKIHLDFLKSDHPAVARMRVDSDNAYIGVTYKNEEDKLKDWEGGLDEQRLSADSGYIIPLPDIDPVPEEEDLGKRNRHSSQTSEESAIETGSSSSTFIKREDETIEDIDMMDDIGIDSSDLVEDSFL
T1 sequence (P10721 544-976 V654A): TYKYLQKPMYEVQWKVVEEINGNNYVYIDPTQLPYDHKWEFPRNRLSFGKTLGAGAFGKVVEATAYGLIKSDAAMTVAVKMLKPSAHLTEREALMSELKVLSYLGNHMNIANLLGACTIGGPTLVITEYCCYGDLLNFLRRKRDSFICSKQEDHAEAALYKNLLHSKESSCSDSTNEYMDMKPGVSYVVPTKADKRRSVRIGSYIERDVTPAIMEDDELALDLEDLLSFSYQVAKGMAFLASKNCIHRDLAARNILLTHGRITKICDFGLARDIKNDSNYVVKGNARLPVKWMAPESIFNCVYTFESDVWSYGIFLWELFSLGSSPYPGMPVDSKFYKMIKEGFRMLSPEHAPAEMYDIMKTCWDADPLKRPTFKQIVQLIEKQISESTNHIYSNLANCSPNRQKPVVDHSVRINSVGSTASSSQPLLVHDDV

## COCCNC(=O)c1ccc(-n2cc(-c3cc4cccnc4[nH]c3=O)nn2)cc1 [A9, N-(2-methoxy-ethyl)-4-[4-(2-oxo-1,2-dihydro-[1,8]naphthyridin-3-yl)-[1,2,3]triazol-1-yl]-benzamide]
c-Kit(V654A)
  IC50: 760 nM
PDGFRalpha(V561D)
  IC50: 230 nM

## O=C(c1ccc(-n2cc(-c3cc4cc(F)ccc4[nH]c3=O)nn2)cc1)N1CCC2(CCOC2)C1 (centres unmarked) [A204, 6-fluoro-3-{1-[4-(2-oxa-7-aza-spiro[4.4]nonane-7-carbonyl)-phenyl]-1H-[1,2,3]triazol-4-yl}-1H-quinolin-2-one]
c-Kit(V654A)
  IC50: 55 nM
PDGFRalpha(V561D)
  IC50: 110 nM

## COC1CCN(C(=O)c2ccc(-n3cc(-c4cc5cc(F)ccc5[nH]c4=O)nn3)cc2)CC1 [A190, 6-fluoro-3-{1-[4-(4-methoxy-piperidine-1-carbonyl)-phenyl]-1H-[1,2,3]triazol-4-yl}-1H-quinolin-2-one]
c-Kit(V654A)
  IC50: 9.7 nM
PDGFRalpha(V561D)
  IC50: 64 nM

## CNC(=O)c1ccc(-n2cc(-c3cc4ccccc4[nH]c3=O)nn2)cc1F [A39, 2-fluoro-N-methyl-4-[4-(2-oxo-1,2-dihydro-quinolin-3-yl)-[1,2,3]triazol-1-yl]-benzamide]
c-Kit(V654A)
  IC50: 74 nM
PDGFRalpha(V561D)
  IC50: 23 nM

## CN1CCN(C(=O)c2ccc(-n3cc(-c4cc5c(F)cccc5[nH]c4=O)nn3)cc2)CC1 [A149, 5-fluoro-3-{1-[4-(4-methyl-piperazine-1-carbonyl)-phenyl]-1H-[1,2,3]triazol-4-yl}-1H-quinolin-2-one]
c-Kit(V654A)
  IC50: 6 nM
PDGFRalpha(V561D)
  IC50: 12 nM

## CC(=O)OC1CCCN(C(=O)c2ccc(-n3cc(-c4cc5cc(F)ccc5[nH]c4=O)nn3)cc2)C1 (centres unmarked) [A103, acetic acid 1-{4-[4-(6-fluoro-2-oxo-1,2-dihydro-quinolin-3-yl)-[1,2,3]triazol-1-yl]-benzoyl}-piperidin-3-yl ester]
c-Kit(V654A)
  IC50: 8.6 nM
PDGFRalpha(V561D)
  IC50: 35 nM

## O=c1[nH]c2ccccc2cc1-c1cn(-c2ccc(OCCN3CCOCC3)cc2)nn1 [A26, 3-{1-[4-(2-morpholin-4-yl-ethoxy)-phenyl]-1H-[1,2,3]triazol-4-yl}-1H-quinolin-2-one]
c-Kit(V654A)
  IC50: 15 nM
PDGFRalpha(V561D)
  IC50: 10 nM

## CN(C)C[C@H]1CCCN1C(=O)c1ccc(-n2cc(-c3cc4cc(F)ccc4[nH]c3=O)nn2)cc1 [A321, 3-{1-[4-((R)-2-dimethylaminomethyl-pyrrolidine-1-carbonyl)-phenyl]-1H-[1,2,3]triazol-4-yl}-6-fluoro-1H-quinolin-2-one]
c-Kit(V654A)
  IC50: 44 nM
PDGFRalpha(V561D)
  IC50: 370 nM

## CN(C)C[C@H]1CCCN1C(=O)c1ccc(-n2cc(-c3cc4cc(F)ccc4[nH]c3=O)cn2)cc1 [A325, 3-{1-[4-((R)-2-dimethylaminomethyl-pyrrolidine-1-carbonyl)-phenyl]-1H-pyrazol-4-yl}-6-fluoro-1H-quinolin-2-one]
c-Kit(V654A)
  IC50: 17 nM
PDGFRalpha(V561D)
  IC50: 3.8 nM

## O=C(c1ccc(-n2cc(-c3cc4cc(F)ccc4[nH]c3=O)nn2)cc1)N1CCC1 [A280, 3-{1-[4-(azetidine-1-carbonyl)-phenyl]-1H-[1,2,3]triazol-4-yl}-6-fluoro-1H-quinolin-2-one]
c-Kit(V654A)
  IC50: 77 nM
PDGFRalpha(V561D)
  IC50: 53 nM

## O=C(c1ccc(-n2cc(-c3cc4cc(F)ccc4[nH]c3=O)nn2)cc1)N1CC[C@H](F)C1 [A265, 6-fluoro-3-{1-[4-((S)-3-fluoro-pyrrolidine-1-carbonyl)-phenyl]-1H-[1,2,3]triazol-4-yl}-1H-quinolin-2-one]
c-Kit(V654A)
  IC50: 49 nM
PDGFRalpha(V561D)
  IC50: 1.6 nM

## CO[C@@H]1CC[C@H](Oc2ccc(-n3cc(-c4cc5cc(Cl)ccc5[nH]c4=O)nn3)cc2)C1 (stereo in doubt) [A356, 6-chloro-3-{1-[4-((1S,3R)-3-methoxy-cyclopentyloxy)-phenyl]-1H-[1,2,3]triazol-4-yl}-1H-quinolin-2-one]
c-Kit(V654A)
  IC50: 96 nM
PDGFRalpha(V561D)
  IC50: 150 nM

## CN(C)C1CCN(C(=O)c2ccc(-n3cc(-c4cc5cc(F)ccc5[nH]c4=O)nn3)cc2)C1 (centres unmarked) [A207, 3-{1-[4-(3-dimethylamino-pyrrolidine-1-carbonyl)-phenyl]-1H-[1,2,3]triazol-4-yl}-6-fluoro-1H-quinolin-2-one]
c-Kit(V654A)
  IC50: 52 nM
PDGFRalpha(V561D)
  IC50: 310 nM

## O=C(c1ccc(-n2cc(-c3cc4cc(F)ccc4[nH]c3=O)nn2)cc1)C1CCNCC1 [A132, 6-fluoro-3-{1-[4-(piperidine-4-carbonyl)-phenyl]-1H-[1,2,3]triazol-4-yl}-1H-quinolin-2-one]
c-Kit(V654A)
  IC50: 7.5 nM
PDGFRalpha(V561D)
  IC50: 0.8 nM

## O=c1[nH]c2ccncc2cc1-c1cn(-c2ccc(F)cc2)nn1 [A45, 3-[1-(4-fluoro-phenyl)-1H-[1,2,3]triazol-4-yl]-1H-[1,6]naphthyridin-2-one]
c-Kit(V654A)
  IC50: 1100 nM
PDGFRalpha(V561D)
  IC50: 330 nM

## O=c1[nH]c2ncc(F)cc2cc1-c1cn(-c2ccc(N3CCCNCC3)cc2)nn1 [A124, 3-[1-(4-[1,4]diazepan-1-yl-phenyl)-1H-[1,2,3]triazol-4-yl]-6-fluoro-1H-[1,8]naphthyridin-2-one]
c-Kit(V654A)
  IC50: 66 nM
PDGFRalpha(V561D)
  IC50: 9 nM

## O=C(c1ccc(-n2cc(-c3cc4ccc(F)cc4[nH]c3=O)nn2)cc1)N1CCOCC1 [A83, 7-fluoro-3-{1-[4-(morpholine-4-carbonyl)-phenyl]-1H-[1,2,3]triazol-4-yl}-1H-quinolin-2-one]
c-Kit(V654A)
  IC50: 10 nM
PDGFRalpha(V561D)
  IC50: 3 nM

## COC[C@H]1CC[C@H](COC)N1C(=O)c1ccc(-n2cc(-c3cc4cc(F)ccc4[nH]c3=O)nn2)cc1 [A218, 3-{1-[4-((2R,5R)-2,5-bis-methoxymethyl-pyrrolidine-1-carbonyl)-phenyl]-1H-[1,2,3]triazol-4-yl}-6-fluoro-1H-quinolin-2-one]
c-Kit(V654A)
  IC50: 64 nM
PDGFRalpha(V561D)
  IC50: 59 nM

## O=C(c1cccc(-n2cc(-c3cc4cc(F)c(F)cc4[nH]c3=O)nn2)c1)N1CCC(N2CCCC2)C1 (centres unmarked) [A108, 3-{1-[3-([1,3′]bipyrrolidinyl-1′-carbonyl)-phenyl]-1H-[1,2,3]triazol-4-yl}-6,7-difluoro-1H-quinolin-2-one]
c-Kit(V654A)
  IC50: 83 nM
PDGFRalpha(V561D)
  IC50: 81 nM

## O=C(c1ccc(-n2cc(-c3cc4cc(Cl)ccc4[nH]c3=O)nn2)cc1)N1C[C@@H](O)CO1 [A275, 6-chloro-3-{1-[4-((R)-4-hydroxy-isoxazolidine-2-carbonyl)-phenyl]-1H-[1,2,3]triazol-4-yl}-1H-quinolin-2-one]
c-Kit(V654A)
  IC50: 45 nM
PDGFRalpha(V561D)
  IC50: 0.21 nM

## CN1CCN(C(=O)COc2ccc(-n3cc(-c4cc5cc(F)ccc5[nH]c4=O)nn3)cc2)CC1 [A165, 6-fluoro-3-(1-{4-[2-(4-methyl-piperazin-1-yl)-2-oxo-ethoxy]-phenyl}-1H-[1,2,3]triazol-4-yl)-1H-quinolin-2-one]
c-Kit(V654A)
  IC50: 30 nM
PDGFRalpha(V561D)
  IC50: 33 nM

## O=C(c1ccc(-n2cc(-c3cc4cc(Cl)ccc4[nH]c3=O)nn2)cc1)N1CCC(F)(F)C1 [A268, 6-chloro-3-{1-[4-(3,3-difluoro-pyrrolidine-1-carbonyl)-phenyl]-1H-[1,2,3]triazol-4-yl}-1H-quinolin-2-one]
c-Kit(V654A)
  IC50: 16 nM
PDGFRalpha(V561D)
  IC50: 0.67 nM

## CO[C@@H]1CCN(C(=O)c2ccc(-n3cc(-c4cc5cc(F)ccc5[nH]c4=O)nn3)cc2)C1 [A111, 6-fluoro-3-{1-[4-((R)-3-methoxy-pyrrolidine-1-carbonyl)-phenyl]-1H-[1,2,3]triazol-4-yl}-1H-quinolin-2-one]
c-Kit(V654A)
  IC50: 7.7 nM
PDGFRalpha(V561D)
  IC50: 18 nM

## CN(C)C[C@@H]1CCCN1C(=O)c1ccc(-n2cc(-c3cc4cc(F)ccc4[nH]c3=O)nn2)cc1 [A319, 3-{1-[4-((S)-2-dimethylaminomethyl-pyrrolidine-1-carbonyl)-phenyl]-1H-[1,2,3]triazol-4-yl}-6-fluoro-1H-quinolin-2-one]
c-Kit(V654A)
  IC50: 27 nM
PDGFRalpha(V561D)
  IC50: 36 nM

## O=C(c1ccc(-n2cc(-c3cc4cc(Cl)ccc4[nH]c3=O)nn2)cc1)N1C[C@H](O)CO1 [A277, 6-chloro-3-{1-[4-((S)-4-hydroxy-isoxazolidine-2-carbonyl)-phenyl]-1H-[1,2,3]triazol-4-yl}-1H-quinolin-2-one]
c-Kit(V654A)
  IC50: 30 nM
PDGFRalpha(V561D)
  IC50: 2.6 nM

## O=C(c1ccc(-n2cc(-c3cc4ccc(Cl)cc4[nH]c3=O)nn2)cc1)N1CCNCC1 [A126, 7-chloro-3-{1-[4-(piperazine-1-carbonyl)-phenyl]-1H-[1,2,3]triazol-4-yl}-1H-quinolin-2-one]
c-Kit(V654A)
  IC50: 19 nM
PDGFRalpha(V561D)
  IC50: 42 nM

## COCCN(C)C(=O)c1ccc(-n2cc(-c3cc4cc(F)c(F)cc4[nH]c3=O)nn2)cc1 [A212, 4-[4-(6,7-difluoro-2-oxo-1,2-dihydro-quinolin-3-yl)-[1,2,3]triazol-1-yl]-N-(2-methoxy-ethyl)-N-methyl-benzamide]
c-Kit(V654A)
  IC50: 1300 nM
PDGFRalpha(V561D)
  IC50: 160 nM

## COCCCN1CCN(C(=O)c2ccc(-n3cc(-c4cc5cc(F)ccc5[nH]c4=O)nn3)cc2)CC1 [A86, 6-fluoro-3-(1-{4-[4-(3-methoxy-propyl)-piperazine-1-carbonyl]-phenyl}-1H-[1,2,3]triazol-4-yl)-1H-quinolin-2-one]
c-Kit(V654A)
  IC50: 11 nM
PDGFRalpha(V561D)
  IC50: 2 nM

## CN1CCC(CCOc2ccc(-n3cc(-c4cc5cc(F)ccc5[nH]c4=O)nn3)cc2)CC1 [A163, 6-fluoro-3-(1-{4-[2-(1-methyl-piperidin-4-yl)-ethoxy]-phenyl}-1H-[1,2,3]triazol-4-yl)-1H-quinolin-2-one]
c-Kit(V654A)
  IC50: 9.9 nM
PDGFRalpha(V561D)
  IC50: 45 nM

## COCCO[C@H]1CCN(C(=O)c2ccc(-n3cc(-c4cc5cc(F)ccc5[nH]c4=O)cn3)cc2)C1 [A299, 6-fluoro-3-(1-{4-[(S)-3-(2-methoxy-ethoxy)-pyrrolidine-1-carbonyl]-phenyl}-1H-pyrazol-4-yl)-1H-quinolin-2-one]
c-Kit(V654A)
  IC50: 58 nM
PDGFRalpha(V561D)
  IC50: 23 nM

## CO[C@@H]1CCN(C(=O)c2ccc(-n3cc(-c4cc5cc(F)c(F)cc5[nH]c4=O)nn3)cc2)C1 [A113, 6,7-difluoro-3-{1-[4-((R)-3-methoxy-pyrrolidine-1-carbonyl)-phenyl]-1H-[1,2,3]triazol-4-yl}-1H-quinolin-2-one]
c-Kit(V654A)
  IC50: 8.6 nM
PDGFRalpha(V561D)
  IC50: 36 nM

— patent US11939314B2, “Quinolin-2-one derivatives” (MERCK PATENT GMBH, priority 2016, dated 2024)
